# Molecular target: Pol Theta (1-894) (Homo sapiens (Human), UniProt O75417)
# Assay: Biochemical Pol Theta (1-894) ATPase IC50 assay (ADP-Glo, ssDNA substrate)
# Conditions: ADP-Glo assay with ssDNA substrate, room temperature
# How it was run: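 His-tagged human Pol Theta 1-894 from Sf9 baculovirus cells, 2× enzyme solution at 12.5 nM, assayed with ssDNA substrate at room temperature in 40 mM Tris pH 7.5, 20 mM MgCl2, 1 mM DTT, 0.01% BSA, 0.05% Tween-20.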
# Sequence of Pol Theta (1-894) (O75417 1-894): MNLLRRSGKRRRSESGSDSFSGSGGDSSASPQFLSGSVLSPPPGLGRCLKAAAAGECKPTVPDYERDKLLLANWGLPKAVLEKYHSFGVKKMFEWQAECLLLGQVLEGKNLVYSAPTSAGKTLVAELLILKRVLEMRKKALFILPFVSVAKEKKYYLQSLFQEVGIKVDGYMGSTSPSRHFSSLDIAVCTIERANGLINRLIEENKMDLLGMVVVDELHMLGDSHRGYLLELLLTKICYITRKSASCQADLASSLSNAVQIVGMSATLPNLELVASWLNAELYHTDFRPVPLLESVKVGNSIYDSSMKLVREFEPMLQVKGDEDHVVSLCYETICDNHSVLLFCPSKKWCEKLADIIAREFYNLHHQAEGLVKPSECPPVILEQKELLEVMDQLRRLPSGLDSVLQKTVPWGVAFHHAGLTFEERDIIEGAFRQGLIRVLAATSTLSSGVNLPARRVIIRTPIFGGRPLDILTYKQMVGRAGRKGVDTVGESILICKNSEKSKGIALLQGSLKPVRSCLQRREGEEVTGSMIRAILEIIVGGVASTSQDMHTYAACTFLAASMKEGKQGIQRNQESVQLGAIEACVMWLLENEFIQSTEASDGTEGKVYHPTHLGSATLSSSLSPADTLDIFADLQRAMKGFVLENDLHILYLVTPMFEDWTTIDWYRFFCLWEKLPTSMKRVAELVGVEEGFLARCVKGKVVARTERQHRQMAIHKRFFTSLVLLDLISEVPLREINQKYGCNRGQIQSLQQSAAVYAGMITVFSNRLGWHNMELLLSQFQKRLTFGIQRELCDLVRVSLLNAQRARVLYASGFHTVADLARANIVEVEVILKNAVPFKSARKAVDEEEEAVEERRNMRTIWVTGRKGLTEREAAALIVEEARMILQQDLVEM
row,IC50 [nM],Structure (SMILES)
1,54,"COc1ccc(C#N)cc1-c1cc(C)ncc1C(=O)Nc1nc2ccc(-c3ccc(C4CC4)cc3)nc2s1 [Example 20, 4-(5-cyano-2-methoxyphenyl)-N-(5-(4-cyclopropylphenyl)thiazolo[5,4-b]pyridin-2-yl)-6-methylnicotinamide]"
2,99,"COCc1ccc(OC)c(-c2cc(C)ncc2C(=O)Nc2nc3ccc(-c4ccc(C#N)cc4)nc3s2)c1 [Example 66, N-(5-(4-cyanophenyl)thiazolo[5,4-b]pyridin-2-yl)-4-(2-methoxy-5-(methoxymethyl)phenyl)-6-methylnicotinamide]"
3,35,"COc1ccccc1-c1cnncc1C(=O)Nc1nc2ccc(Oc3ccc(Cl)c(F)c3)nc2s1 [Example 130, N-(5-(4-chloro-3-fluorophenoxy)thiazolo[5,4-b]pyridin-2-yl)-5-(2-methoxyphenyl)pyridazine-4-carboxamide]"

# Reference: patent publication US20250026766A1, “Thiazolopyridyl Amide Derivatives as DNA Polymerase Theta Inhibitors” (BeiGene, Ltd., priority 2022, published 2025)
